Results reported in ChEMBL document CHEMBL1201862, “PubChem BioAssay data set” (2004).
Calls of active or inactive are those of the source.

Assays:
[1] = biological target: T1, Ubiquitin-conjugating enzyme E2 N (Homo sapiens, UniProt P61088); type: functional;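 further: Dose-response confirmation in a TR-FRET assay detecting UBC13-driven polyubiquitin chain formation, inhibition measured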
T1 sequence (P61088 whole entry): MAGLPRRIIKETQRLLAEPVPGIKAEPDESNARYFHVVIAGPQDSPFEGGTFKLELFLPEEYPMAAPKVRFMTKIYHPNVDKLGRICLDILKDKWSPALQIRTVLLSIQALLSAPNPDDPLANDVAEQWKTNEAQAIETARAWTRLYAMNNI

[2] = biological target: T2, Heat shock factor protein 1 (Mus musculus, UniProt P38532); test: HSF1 potentiators in luciferase reporter cells, confirmation, cell-based, NIH3T3, luminescence, dose retest (AID 435004); type: functional;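 further: stress induced by proteasome inhibitor MG132 added 30 min after compound; luciferase reporter driven by HSF1 response element in NIH3T3 cells; actives raise luminescence as potentiators of the MG132 stress response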
T2 sequence (P38532 whole entry): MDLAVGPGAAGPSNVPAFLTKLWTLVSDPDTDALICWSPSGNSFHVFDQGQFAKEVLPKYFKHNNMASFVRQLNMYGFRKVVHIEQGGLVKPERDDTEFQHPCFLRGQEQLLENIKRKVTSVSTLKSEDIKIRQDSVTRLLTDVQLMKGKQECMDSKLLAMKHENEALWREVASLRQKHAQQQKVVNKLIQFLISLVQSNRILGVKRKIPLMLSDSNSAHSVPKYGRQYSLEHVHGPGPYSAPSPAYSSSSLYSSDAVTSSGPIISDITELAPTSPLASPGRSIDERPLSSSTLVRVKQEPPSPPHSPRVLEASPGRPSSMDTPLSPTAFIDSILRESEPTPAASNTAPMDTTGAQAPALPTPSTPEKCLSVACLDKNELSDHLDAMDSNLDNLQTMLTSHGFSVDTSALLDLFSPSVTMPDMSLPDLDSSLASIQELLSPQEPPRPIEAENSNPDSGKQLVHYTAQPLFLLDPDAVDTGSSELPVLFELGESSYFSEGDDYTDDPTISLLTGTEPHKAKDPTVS

Estrogen receptor = biological target: T3, Estrogen receptor (Homo sapiens, UniProt P03372);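 further: potency for inhibiting coactivator peptide recruitment to the receptor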
T3 sequence (P03372 whole entry): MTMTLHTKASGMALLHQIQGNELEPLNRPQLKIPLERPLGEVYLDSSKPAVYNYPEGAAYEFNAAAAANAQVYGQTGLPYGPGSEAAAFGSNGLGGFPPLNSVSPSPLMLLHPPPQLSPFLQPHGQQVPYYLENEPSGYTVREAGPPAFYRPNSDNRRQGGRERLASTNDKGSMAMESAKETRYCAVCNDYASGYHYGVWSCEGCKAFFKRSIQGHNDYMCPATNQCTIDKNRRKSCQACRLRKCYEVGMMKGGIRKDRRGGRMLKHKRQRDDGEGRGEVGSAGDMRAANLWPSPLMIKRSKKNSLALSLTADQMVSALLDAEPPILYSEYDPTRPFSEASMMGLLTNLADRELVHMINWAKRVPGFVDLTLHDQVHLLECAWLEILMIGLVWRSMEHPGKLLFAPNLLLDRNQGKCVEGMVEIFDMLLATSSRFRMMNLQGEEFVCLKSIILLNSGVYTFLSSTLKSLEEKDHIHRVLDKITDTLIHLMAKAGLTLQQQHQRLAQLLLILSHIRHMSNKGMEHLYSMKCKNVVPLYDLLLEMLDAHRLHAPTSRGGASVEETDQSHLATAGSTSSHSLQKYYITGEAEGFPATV

[3] = intracellular Trypanosoma cruzi inhibitors in host cells – cell-based, plate reader, cherry-pick samples, set 3, dose response (AID 651818); type: functional;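 further: compounds incubated with infected cells for about four days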
cells [4] = type: functional, cell-based
cells [5] = type: functional, cell-based; remark: listed apart in the source
[6] = inhibitors of intracellular T. cruzi replication, confirmation, NIH3T3 host cells, beta-gal luminescence (AID 2044); type: functional, cell-based;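 further: intracellular parasites grown in NIH/3T3 mouse fibroblasts as host cells; luminescent beta-galactosidase reporter signal from transgenic T. cruzi replicating inside host cells; inhibitors lower the luminescence signal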
[7] = Luminescence Cell-Based Dose Retest to Confirm Inhibitors of Cancer Stem Cells. [Related pubchem assays (depositor defined):AID2717, AID2721]; type: functional; settings: Homo sapiens
Protein RecA = biological target: T4, Protein RecA (Mycobacterium tuberculosis, UniProt P9WHJ3); test: Fluorescence Cell-Free Homogeneous Dose Retest to Identify Inhibitors of RecA-Intein Splicing Activity. [Related pubchem assays (depositor defined):AID2097, AID2223, AID489010, AID492950]; type: functional
T4 sequence (P9WHJ3 whole entry): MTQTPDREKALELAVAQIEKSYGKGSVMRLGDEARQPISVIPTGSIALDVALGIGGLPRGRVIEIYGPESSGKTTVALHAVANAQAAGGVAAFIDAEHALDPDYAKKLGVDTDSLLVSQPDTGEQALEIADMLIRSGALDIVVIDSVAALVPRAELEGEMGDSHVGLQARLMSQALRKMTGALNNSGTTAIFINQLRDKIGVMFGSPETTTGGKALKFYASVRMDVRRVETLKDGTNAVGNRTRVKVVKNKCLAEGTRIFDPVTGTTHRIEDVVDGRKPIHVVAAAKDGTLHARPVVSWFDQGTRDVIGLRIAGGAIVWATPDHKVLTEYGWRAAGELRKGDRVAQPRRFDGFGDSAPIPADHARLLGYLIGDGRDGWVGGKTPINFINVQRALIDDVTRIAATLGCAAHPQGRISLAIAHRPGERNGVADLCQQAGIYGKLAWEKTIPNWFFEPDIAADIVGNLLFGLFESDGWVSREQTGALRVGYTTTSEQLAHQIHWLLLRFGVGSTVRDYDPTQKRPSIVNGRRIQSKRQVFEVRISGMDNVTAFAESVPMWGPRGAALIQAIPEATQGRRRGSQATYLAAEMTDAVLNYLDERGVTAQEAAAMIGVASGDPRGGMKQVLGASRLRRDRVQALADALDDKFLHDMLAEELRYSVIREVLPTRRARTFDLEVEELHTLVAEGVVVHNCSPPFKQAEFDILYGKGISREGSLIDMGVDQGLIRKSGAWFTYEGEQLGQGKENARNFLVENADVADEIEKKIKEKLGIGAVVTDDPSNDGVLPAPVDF

INS1 = test: beta cell apoptosis inhibitors, cytokine rescue, dose response, luminescence, retest (AID 449756); type: functional, cell-based; settings: Rattus norvegicus;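 further: cell death triggered by IL-1 beta plus TNF-alpha plus IFN-gamma mixture; protective hits raise ATP signal compared with cytokine alone wells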
[8] = cytotoxicity toward NIH3T3 fibroblasts, dose response, counter-screen, cell-based, ATP luminescence, mouse fibroblasts (AID 2010); type: functional;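 further: cells exposed to compound for about 90 hours before reading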
[9] = biological target: T5, Replicative DNA helicase DnaB (Mycobacterium tuberculosis, UniProt P9WMR3); test: DnaB intein splicing inhibitors, dose response, biochemical, cell-free fluorescence (AID 449749); type: functional
T5 sequence (P9WMR3 whole entry): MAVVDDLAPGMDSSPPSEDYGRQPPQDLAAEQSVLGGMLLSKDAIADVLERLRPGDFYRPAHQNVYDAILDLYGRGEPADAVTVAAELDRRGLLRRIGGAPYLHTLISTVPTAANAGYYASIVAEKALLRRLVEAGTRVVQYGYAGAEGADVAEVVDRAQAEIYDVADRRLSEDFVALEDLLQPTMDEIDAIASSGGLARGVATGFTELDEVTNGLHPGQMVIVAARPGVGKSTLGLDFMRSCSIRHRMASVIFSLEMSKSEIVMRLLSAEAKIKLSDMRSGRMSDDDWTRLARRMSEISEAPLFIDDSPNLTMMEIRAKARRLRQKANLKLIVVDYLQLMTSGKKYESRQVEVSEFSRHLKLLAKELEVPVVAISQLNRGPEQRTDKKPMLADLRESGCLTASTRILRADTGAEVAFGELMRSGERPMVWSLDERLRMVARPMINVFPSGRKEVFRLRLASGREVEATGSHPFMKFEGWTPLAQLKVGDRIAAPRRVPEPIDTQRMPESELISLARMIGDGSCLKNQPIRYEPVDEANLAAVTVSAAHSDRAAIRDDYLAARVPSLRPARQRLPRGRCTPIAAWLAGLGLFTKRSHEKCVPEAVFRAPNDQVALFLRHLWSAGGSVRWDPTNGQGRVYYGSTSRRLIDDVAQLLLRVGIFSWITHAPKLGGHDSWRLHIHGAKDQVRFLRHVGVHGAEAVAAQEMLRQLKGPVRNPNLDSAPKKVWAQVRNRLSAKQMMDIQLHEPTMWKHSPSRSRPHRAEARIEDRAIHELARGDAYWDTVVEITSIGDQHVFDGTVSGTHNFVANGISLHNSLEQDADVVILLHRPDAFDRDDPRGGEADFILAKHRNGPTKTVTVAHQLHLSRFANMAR

[10] = biological target: Induced myeloid leukemia cell differentiation protein Mcl-1 (Homo sapiens, UniProt Q07820); type: functional
Sequence of Induced myeloid leukemia cell differentiation protein Mcl-1 (Q07820 whole entry, the tested form may be a part): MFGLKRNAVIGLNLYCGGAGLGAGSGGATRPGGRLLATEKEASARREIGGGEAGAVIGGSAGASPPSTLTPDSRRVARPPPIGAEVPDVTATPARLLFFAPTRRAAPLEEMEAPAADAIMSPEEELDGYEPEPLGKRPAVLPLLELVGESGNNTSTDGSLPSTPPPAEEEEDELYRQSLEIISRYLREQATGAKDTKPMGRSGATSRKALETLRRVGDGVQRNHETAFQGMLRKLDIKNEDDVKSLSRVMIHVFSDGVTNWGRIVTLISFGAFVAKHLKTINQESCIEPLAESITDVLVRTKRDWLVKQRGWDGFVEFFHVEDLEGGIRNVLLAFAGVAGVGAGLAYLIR

[11] = biological target: T6, Carboxy-terminal domain RNA polymerase II polypeptide A small phosphatase 1 (Homo sapiens, UniProt Q9GZU7); test: inhibitors of CTDSP1, concentration-response testing, biochemical assay, absorbance-based, actives from ultra-high-throughput screening (AID 540297); type: functional
T6 sequence (Q9GZU7 whole entry): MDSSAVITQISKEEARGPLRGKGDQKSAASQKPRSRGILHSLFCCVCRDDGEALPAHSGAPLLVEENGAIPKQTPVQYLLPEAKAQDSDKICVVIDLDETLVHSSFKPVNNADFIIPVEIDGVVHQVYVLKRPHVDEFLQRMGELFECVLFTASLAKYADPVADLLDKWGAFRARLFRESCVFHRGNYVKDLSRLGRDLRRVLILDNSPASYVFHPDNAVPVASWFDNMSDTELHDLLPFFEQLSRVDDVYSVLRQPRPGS

Large T antigen = Large T antigen (Simian virus 40, UniProt P03070); type: functional, Betapolyomavirus macacae;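 further: Confirmatory-stage PubChem screen for compounds that inhibit SV40 T antigen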
Sequence of Large T antigen (P03070 whole entry): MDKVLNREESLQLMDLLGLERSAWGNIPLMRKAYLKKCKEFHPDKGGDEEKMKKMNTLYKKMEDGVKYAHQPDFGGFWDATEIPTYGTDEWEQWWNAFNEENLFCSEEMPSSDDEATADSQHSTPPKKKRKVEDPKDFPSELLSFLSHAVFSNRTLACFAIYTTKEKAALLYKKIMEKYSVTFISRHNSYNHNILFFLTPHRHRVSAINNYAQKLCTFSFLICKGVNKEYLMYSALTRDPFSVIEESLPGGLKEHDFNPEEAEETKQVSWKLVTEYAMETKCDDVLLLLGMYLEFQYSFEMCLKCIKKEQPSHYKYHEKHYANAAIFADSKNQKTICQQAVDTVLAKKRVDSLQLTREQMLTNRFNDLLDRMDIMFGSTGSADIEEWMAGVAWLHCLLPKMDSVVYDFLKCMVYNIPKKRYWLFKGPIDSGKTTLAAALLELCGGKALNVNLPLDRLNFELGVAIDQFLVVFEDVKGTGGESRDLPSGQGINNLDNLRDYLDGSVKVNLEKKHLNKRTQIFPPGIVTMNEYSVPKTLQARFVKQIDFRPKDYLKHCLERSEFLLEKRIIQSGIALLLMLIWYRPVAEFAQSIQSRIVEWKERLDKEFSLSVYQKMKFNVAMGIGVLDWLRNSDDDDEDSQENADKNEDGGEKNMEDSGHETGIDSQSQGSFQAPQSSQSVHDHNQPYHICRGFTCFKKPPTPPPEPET

Genome polyprotein = Genome polyprotein (dengue virus type 2, UniProt P29990); test: Dengue-2 NS5 methyltransferase inhibitors, primary screen, biochemical, confirmation dose response (AID 588689); type: functional
Sequence of Genome polyprotein (P29990 2492-3391 limits assumed): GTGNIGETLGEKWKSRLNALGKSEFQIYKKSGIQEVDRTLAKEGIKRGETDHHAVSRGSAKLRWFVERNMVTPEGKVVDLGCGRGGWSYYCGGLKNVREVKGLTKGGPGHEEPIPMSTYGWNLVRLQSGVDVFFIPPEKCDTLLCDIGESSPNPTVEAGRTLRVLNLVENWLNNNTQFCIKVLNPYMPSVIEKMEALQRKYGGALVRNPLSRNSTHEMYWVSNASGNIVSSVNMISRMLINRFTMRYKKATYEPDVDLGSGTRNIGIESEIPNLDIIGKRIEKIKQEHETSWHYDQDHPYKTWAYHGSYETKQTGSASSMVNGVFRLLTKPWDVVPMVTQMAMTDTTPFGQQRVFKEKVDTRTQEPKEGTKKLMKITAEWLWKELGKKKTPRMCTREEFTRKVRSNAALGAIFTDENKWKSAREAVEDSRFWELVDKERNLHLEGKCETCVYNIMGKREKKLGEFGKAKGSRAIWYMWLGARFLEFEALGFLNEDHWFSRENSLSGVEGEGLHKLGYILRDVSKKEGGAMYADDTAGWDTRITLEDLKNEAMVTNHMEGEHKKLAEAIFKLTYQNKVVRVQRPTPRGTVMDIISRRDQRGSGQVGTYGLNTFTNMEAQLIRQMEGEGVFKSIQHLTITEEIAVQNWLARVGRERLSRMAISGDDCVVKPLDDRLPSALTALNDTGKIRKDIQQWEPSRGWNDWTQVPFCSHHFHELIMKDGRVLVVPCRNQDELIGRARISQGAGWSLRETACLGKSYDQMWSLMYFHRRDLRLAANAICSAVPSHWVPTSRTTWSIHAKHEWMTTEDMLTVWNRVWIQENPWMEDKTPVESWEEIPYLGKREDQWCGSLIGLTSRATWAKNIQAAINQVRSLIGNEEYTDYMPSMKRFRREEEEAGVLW

COc1ccc(NC(=O)CSc2nc3c(sc4ccccc43)c(=O)n2CCCN2CCCC2)cc1
IC50 [1]: > 20 µM (inactive)

O=C(C1CCC(CNS(=O)(=O)c2cccc3nsnc23)CC1)N1CCN(c2ccccn2)CC1 (configuration not stated)
EC50 [2]: > 260 µM (inactive)

COc1ccccc1CNC(=O)c1csc(Cc2ccc(Cl)cc2)n1
EC50 [2]: > 260 µM (inactive)

COC(=O)c1ccc(CSc2nc3c(cnn3-c3ccc(C)c(C)c3)c(=O)[nH]2)o1
IC50 (Estrogen receptor): 38.5 µM (not active)

CC(C)CC(=O)Nc1ccc(C(=O)COc2ccc(-c3nnco3)cc2)cc1
IC50 (Estrogen receptor): 22.3 µM (active)

C[C@@H]1CN([C@@H](C)CO)C(=O)c2cccc(NS(=O)(=O)c3cccs3)c2O[C@H]1CN(C)Cc1ccc(C(=O)Nc2ccccc2N)cc1
AC50 [3]: 5.68 µM (active)

C[C@@H]1CN([C@H](C)CO)C(=O)Cc2cc(NC(=O)CCCCCC(=O)Nc3ccccc3N)ccc2O[C@@H]1CN(C)Cc1ccc(Cl)c(Cl)c1
AC50 [3]: 4.01 µM (active)

COc1ccc(N(C(=O)c2snc(C(N)=O)c2N)C(C(=O)NC2CCCCC2)c2ccc(C)o2)cc1 (configuration not stated)
IC50 [1]: > 20 µM (inactive)

Cc1ccc(NC2CCCN(C(=O)C3CCCCC3)C2)cc1C (configuration not stated)
EC50 (cells [4]): > 350 µM (not active)
EC50 (cells [5]): > 350 µM (not active)

CCN(Cc1ccccc1)C(=O)C1CCN(C/C(C)=C/c2ccccc2)CC1
EC50 [2]: > 260 µM (inactive)

CC/N=C1\SC(CC(=O)NC(C)C)C(=O)N1CC (configuration not stated)
EC50 (cells [4]): > 350 µM (not active)
EC50 (cells [5]): > 350 µM (not active)

CCN(CC)CCCNC(=O)C1c2ccccc2C(=O)N(C)C1c1ccc(OC)cc1 (configuration not stated)
EC50 (cells [4]): > 350 µM (not active)
EC50 (cells [5]): > 350 µM (not active)

C[C@H](CO)N1C[C@H](C)[C@H](CN(C)S(=O)(=O)c2ccc(Cl)cc2)Oc2c(NC(=O)CCCCCC(=O)Nc3ccccc3N)cccc2C1=O
AC50 [3]: 1.95 µM (active)

CN(C)CCCOc1ccc(/C=N/NC(=O)CCCCCCC(=O)Nc2ccccc2O)cc1
AC50 [3]: 1.29 µM (active)

C[C@@H]1CCCCO[C@@H](CN(C)S(=O)(=O)c2cccs2)[C@@H](C)CN([C@H](C)CO)C(=O)c2cc(NC(=O)Nc3ccc(C(F)(F)F)cc3)ccc2O1
AC50 [3]: 4.19 µM (active)

CCCCCc1cc(=O)oc2c(C(CCN3CCCC(C)C3)c3ccc(OC)cc3)c(OC)cc(OC)c12 (configuration not stated)
EC50 [6]: 1.6 µM (active)
IC50 [1]: > 20 µM (inactive)
AC50 [7]: 3.25 µM (active)
EC50 (Protein RecA): 12 µM (active)
AC50 (INS1): 7.46 µM (active)
EC50 [8]: 7.56 µM (active)
AC50 [9]: 4.78 µM (active)

COc1ccc(N(CN2C(=O)C3C4C=CC(C4)C3C2=O)C(=O)c2ccco2)cc1 (configuration not stated)
IC50 (Estrogen receptor): > 50 µM (not active)

COc1ccc(Cc2nc3ccc(S(=O)(=O)N4CCOCC4)cc3[nH]2)cc1
IC50 (Estrogen receptor): > 50 µM (not active)

CCC(CC)COC(=O)C1=C(C)NC(=O)NC1c1cc(OC)ccc1OC (configuration not stated)
EC50 [2]: > 260 µM (inactive)

CCOC(=O)c1c(S(=O)(=O)N2CCCC2)c(C)n(C)c1C
EC50 (cells [4]): > 350 µM (not active)
EC50 (cells [5]): > 350 µM (not active)

COc1ccc(/C=N/NC(=O)c2ccc(O)cc2O)cc1CSc1ccccn1
IC50 [10]: 3.42 µM (active)
IC50 [11]: 5.92 µM (active)

O=C(COc1cccnc1[N+](=O)[O-])c1ccc(Cl)s1
IC50 (Large T antigen): 67.7 µM (active)
IC50 [10]: 3.78 µM (active)
IC50 (Genome polyprotein): > 100 µM (active)

O=S1(=O)c2cccc3cccc(c23)N1Cc1nnc(-c2ccccc2Br)o1
EC50 [2]: 34.6 µM (active)

CCOC(=S)SCC(=O)Nc1nc(C)c(C)s1
EC50 [2]: 7.81 µM (active)
